Laboratory results reported in patent US10188107B2 (Heinrich Heine Universität Düsseldorf, priority 2013, dated 2019).
pIC50: −log10 of the molar value.

What was measured:
[1] = target: T1, PEP carboxylase from F. trinervia (C4 PEPC) (Flaveria trinervia, UniProt P30694); assay: Spectrophotometric coupled assay with malate dehydrogenase, C4 PEP carboxylase; type: biochemical; settings: range of concentrations, triplicate; C3 PEPC activity compared at the C4 IC50 concentration (figure legend)
T1 construct: histidine tag; made in house; host or cells: E. coli
T1 sequence (P30694 1-966): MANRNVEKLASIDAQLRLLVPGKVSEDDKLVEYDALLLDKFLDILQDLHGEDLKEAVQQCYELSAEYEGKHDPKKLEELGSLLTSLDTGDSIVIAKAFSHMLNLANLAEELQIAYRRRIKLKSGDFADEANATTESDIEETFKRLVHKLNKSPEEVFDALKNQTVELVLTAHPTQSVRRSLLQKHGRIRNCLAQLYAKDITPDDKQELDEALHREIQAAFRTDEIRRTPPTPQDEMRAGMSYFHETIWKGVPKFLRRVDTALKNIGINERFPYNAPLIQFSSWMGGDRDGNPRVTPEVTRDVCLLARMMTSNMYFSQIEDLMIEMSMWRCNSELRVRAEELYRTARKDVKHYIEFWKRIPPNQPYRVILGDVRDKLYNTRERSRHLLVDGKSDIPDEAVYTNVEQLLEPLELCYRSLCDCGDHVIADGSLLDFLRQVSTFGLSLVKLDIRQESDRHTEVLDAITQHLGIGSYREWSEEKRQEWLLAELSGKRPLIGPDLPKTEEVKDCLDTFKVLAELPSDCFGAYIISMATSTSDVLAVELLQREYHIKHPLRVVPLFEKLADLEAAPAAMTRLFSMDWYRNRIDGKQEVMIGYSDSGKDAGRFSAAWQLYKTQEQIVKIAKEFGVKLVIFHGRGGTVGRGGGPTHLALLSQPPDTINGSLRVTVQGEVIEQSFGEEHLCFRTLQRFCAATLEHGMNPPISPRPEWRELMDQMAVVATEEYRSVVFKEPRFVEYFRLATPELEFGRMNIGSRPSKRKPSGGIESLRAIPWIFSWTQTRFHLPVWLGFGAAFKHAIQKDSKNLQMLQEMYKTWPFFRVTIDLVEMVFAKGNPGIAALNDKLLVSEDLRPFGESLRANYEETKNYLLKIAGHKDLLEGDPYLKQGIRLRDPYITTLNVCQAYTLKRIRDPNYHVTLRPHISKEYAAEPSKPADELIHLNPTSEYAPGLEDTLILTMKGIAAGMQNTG
Excerpt: How to determine the activity of a PEP carboxylase is well known in the art. E.g, the formation of oxaloacetate can be determined spectrophotometrically, e.g., in a malate dehydrogenase coupled system. The reaction velocity can be measured as a decrease in A340 resulting from the oxidation of NADH.
Inhibition of purified PEP carboxylases from F. pringlei and F. trinervia by compounds selected from the VDS was monitored by a spectrophotometric coupled assay with malate dehydrogenase which reduces the oxaloacetate formed by PEP carboxylase to malate. The simultaneous oxidation of NADH is followed at 340 nm with standard optical equipment. The concentration of the inhibitors selected from the VDS was varied in the coupled assay to determine the half maximal inhibitory concentration (IC50).

[2] = tested on: PEP carboxylase from C4 plant Amaranthus viridis; settings: cited from earlier work
[3] = target: pyruvate phosphate dikinase (PPDK); settings: isolated enzyme; read-out: half maximal inhibitory concentration (IC50); cited from earlier work

Molecule	Inhibition of a C4-PEPC [1]	inhibition of PEP carboxylase from Amaranthus viridis [2]	also measured
O=C(O)c1cc(/C=C/c2cc(O)ccc2O)ccc1O [1-(3′-carboxy-4′-hydroxyphenyl)-2-(2,5-dihydroxyphenl(ethene)]	Selective inhibition	–	–
COc1cc2ncc(-c3ccc(O)c(O)c3)nc2cc1OC [2-(3,4-Dihydroxyphenyl)-6,7-dimethoxyquinoxaline]	Inhibition	–	–
O=C(/C=C/c1ccc(O)c(O)c1)c1ccc(O)cc1O [butein]	Selective inhibition	–	–
O=c1c(O)c(-c2ccc(O)c(O)c2)oc2cc(O)ccc12 [fisetin]	–	inhibited	–
O=c1c(O)c(-c2ccc(O)cc2)oc2cc(O)cc(O)c12 [kaempferol]	–	inhibited	–
O=c1c(O)c(-c2ccc(O)cc2O)oc2cc(O)cc(O)c12 [morin]	–	inhibited	–
O=c1c(O)c(-c2cc(O)c(O)c(O)c2)oc2cc(O)cc(O)c12 [myricetin]	–	inhibited	–
O=c1c(O)c(-c2ccc(O)c(O)c2)oc2cc(O)cc(O)c12 [quercetin]	–	inhibited	–
C/C=C(\C)c1cc(O)c(C)c2c1Oc1cc(O)cc(C)c1C(=O)O2 [unguinol]	–	–	pIC50 [3]: 4.40
baicalein/baicalin	–	inhibited	–
catechin	Inhibition	–	–
